How the values were obtained:
[1] = Solubility of the compound in saline; type: physicochemical; conditions: buffer
[2] = Selectivity index, ratio of IC50 for human OX2R expressed in CHOK1 cells to IC50 for human OX1R expressed in CHOK1 cells
[3] = Solubility of the compound in water; type: physicochemical; conditions: buffer
[4] = biological target: T1, Orexin/Hypocretin receptor type 1 (Homo sapiens, UniProt O43613); assay: Antagonist activity at human OX1R expressed in CHOK1 cells assessed as inhibition of orexin A-induced intracellular calcium level preincubated for 15 mins followed by orexin A addition by Fura-2-AM dye based fluorescence assay
T1 sequence (O43613 whole entry): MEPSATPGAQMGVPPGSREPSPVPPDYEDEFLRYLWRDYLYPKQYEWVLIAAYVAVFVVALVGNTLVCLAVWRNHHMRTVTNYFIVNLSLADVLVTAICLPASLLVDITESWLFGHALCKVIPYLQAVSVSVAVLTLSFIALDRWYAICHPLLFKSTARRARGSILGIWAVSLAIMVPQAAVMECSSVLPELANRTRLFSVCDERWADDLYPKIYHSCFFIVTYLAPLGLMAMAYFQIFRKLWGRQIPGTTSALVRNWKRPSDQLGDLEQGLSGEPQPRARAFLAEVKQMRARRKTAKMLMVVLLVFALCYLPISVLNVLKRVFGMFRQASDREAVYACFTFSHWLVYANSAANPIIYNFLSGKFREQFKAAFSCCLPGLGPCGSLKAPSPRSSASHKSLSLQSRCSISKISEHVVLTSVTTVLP

For `COc1ccc2c3c1O[C@H]1[C@H](N(C)C(=O)/C=C/c4ccoc4)CC[C@@]4(O)[C@@H](C2)N(S(=O)(=O)c2cccc(Cl)c2)CC[C@]314`, the solubility [1] was “Insoluble”, the “Ratio IC50” value [2] was less than 88.4 and the solubility [3] was “Insoluble”. The Ki [4] was 3.47 nM.
With `COc1ccc2c3c1O[C@H]1[C@H](N(C)C(=O)/C=C/c4ccoc4)CC[C@@]4(O)[C@@H](C2)N(S(=O)(=O)c2ccc(Cl)cc2)CC[C@]314` the solubility [1] was “Insoluble”, the “Ratio IC50” value [2] was less than 88.4 and the solubility [3] was “Insoluble”. For the same compound, the Ki [4] was 5.13 nM.
In the case of `COc1ccc2c3c1O[C@H]1[C@H](N(C)C(=O)/C=C/c4ccoc4)CC[C@@]4(O)[C@@H](C2)N(S(=O)(=O)c2cccc(C)c2)CC[C@]314`, the solubility [1] is reported as “Insoluble”, the “Ratio IC50” value [2] is reported as less than 88.4 and the solubility [3] is reported as “Insoluble”. It also gave a Ki [4] of 2.98 nM.
For `COc1ccc2c3c1O[C@H]1[C@H](N(C)C(=O)/C=C/c4ccoc4)CC[C@@]4(O)[C@@H](C2)N(S(=O)(=O)c2ccccc2F)CC[C@]314`, the solubility [1] was “Insoluble”, the “Ratio IC50” value [2] was less than 88.4 and the solubility [3] was “Insoluble”. The Ki [4] was 2.07 nM.
In the case of `COc1ccc2c3c1O[C@H]1[C@H](N(C)C(=O)/C=C/c4ccoc4)CC[C@@]4(O)[C@@H](C2)N(S(=O)(=O)c2ccccc2N(C)C)CC[C@]314.Cl`, the solubility [1] is reported as “Insoluble”, the “Ratio IC50” value [2] is reported as less than 88.4 and the solubility [3] is reported as “Insoluble”. For the same compound, the Ki [4] was 1.92 nM.
For `COc1ccc2c3c1O[C@H]1[C@H](N(C)C(=O)/C=C/c4ccoc4)CC[C@@]4(O)[C@@H](C2)N(S(=O)(=O)c2ccccc2C#N)CC[C@]314`, the solubility [1] was “Insoluble”, the “Ratio IC50” value [2] was less than 88.4 and the solubility [3] was “Insoluble”. The Ki [4] was 1.96 nM.
In the case of `CCCCS(=O)(=O)N1CC[C@]23c4c5ccc(OC)c4O[C@H]2[C@H](N(C)C(=O)/C=C/c2ccoc2)CC[C@@]3(O)[C@H]1C5`, the solubility [1] is reported as “Insoluble”, the “Ratio IC50” value [2] is reported as less than 88.4 and the solubility [3] is reported as “Insoluble”. For the same compound, the Ki [4] was 5.94 nM.
For `COc1ccc2c3c1O[C@H]1[C@H](N(C)C(=O)/C=C/c4ccoc4)CC[C@@]4(O)[C@@H](C2)N(S(=O)(=O)c2cccc(C(F)(F)F)c2)CC[C@]314`, the solubility [1] was “Insoluble”, the “Ratio IC50” value [2] was less than 88.4 and the solubility [3] was “Insoluble”. It also gave a Ki [4] of 6.19 nM.
With `COc1ccc2c3c1O[C@H]1[C@H](N(C)C(=O)/C=C/c4ccoc4)CC[C@@]4(O)[C@@H](C2)N(S(=O)(=O)c2cccc(F)c2)CC[C@]314` the solubility [1] was “Insoluble”, the “Ratio IC50” value [2] was less than 88.4 and the solubility [3] was “Insoluble”. For the same compound, the Ki [4] was 7.6 nM.
For `COc1ccc2c3c1O[C@H]1[C@H](N(C)C(=O)/C=C/c4ccoc4)CC[C@@]4(O)[C@@H](C2)N(S(=O)(=O)c2ccccc2C(F)(F)F)CC[C@]314`, the solubility [1] was “Insoluble”, the “Ratio IC50” value [2] was less than 88.4 and the solubility [3] was “Insoluble”. The Ki [4] was 2.05 nM.
For `COc1ccc2c3c1O[C@H]1[C@H](N(C)C(=O)/C=C/c4ccoc4)CC[C@@]4(O)[C@@H](C2)N(S(=O)(=O)c2ccc(C)cc2)CC[C@]314`, the solubility [1] was “Insoluble”, the “Ratio IC50” value [2] was less than 88.4 and the solubility [3] was “Insoluble”. The Ki [4] was 5.85 nM.
For `COc1ccc2c3c1O[C@H]1[C@H](N(C)C(=O)/C=C/c4ccoc4)CC[C@@]4(O)[C@@H](C2)N(S(=O)(=O)c2cccc(C#N)c2)CC[C@]314`, the solubility [1] was “Insoluble”, the “Ratio IC50” value [2] was less than 88.4 and the solubility [3] was “Insoluble”. The Ki [4] was 7.3 nM.
For `COc1ccc2c3c1O[C@H]1[C@H](N(C)C(=O)/C=C/c4ccoc4)CC[C@@]4(O)[C@@H](C2)N(S(=O)(=O)c2cccc(Br)c2)CC[C@]314`, the solubility [1] was “Insoluble”, the “Ratio IC50” value [2] was less than 88.4 and the solubility [3] was “Insoluble”. The Ki [4] was 2.27 nM.
For `COc1ccccc1S(=O)(=O)N1CC[C@]23c4c5ccc(OC)c4O[C@H]2[C@H](N(C)C(=O)/C=C/c2ccoc2)CC[C@@]3(O)[C@H]1C5`, the solubility [1] was “Insoluble”, the “Ratio IC50” value [2] was less than 88.4 and the solubility [3] was “Insoluble”. For the same compound, the Ki [4] was 6.37 nM.
With `CN(Cc1ccccc1)[C@@H]1CC[C@@]2(O)[C@H]3Cc4ccc(O)c5c4[C@@]2(CCN3CC2CC2)[C@H]1O5.Cl` the solubility [1] was “Insoluble”, the “Ratio IC50” value [2] was less than 88.4 and the solubility [3] was “Insoluble”.
`COc1ccc2c3c1O[C@H]1[C@H](N(C)C(=O)/C=C/c4cccnc4)CC[C@@]4(O)[C@@H](C2)N(S(=O)(=O)c2ccccc2N(C)C)CC[C@]314` gave a Ki [4] of 42.3 nM.
With `COc1ccc2c3c1O[C@H]1[C@H](N(C)C(=O)/C=C/c4ccoc4)CC[C@@]4(O)[C@@H](C2)N(S(=O)(=O)C2CC2)CC[C@]314` the solubility [1] was “Insoluble”, the “Ratio IC50” value [2] was less than 88.4 and the solubility [3] was “Insoluble”. For the same compound, the Ki [4] was 12.1 nM.
With `COc1ccc2c3c1O[C@H]1[C@H](N(C)C(=O)/C=C/c4ccoc4)CC[C@@]4(O)[C@@H](C2)N(C(C)=O)CC[C@]314` the solubility [1] was “Insoluble”, the “Ratio IC50” value [2] was less than 88.4 and the solubility [3] was “Insoluble”. For the same compound, the Ki [4] was 541 nM.
In the case of `COc1ccc2c3c1O[C@H]1[C@H](N(C)C(=O)/C=C/c4ccoc4)CC[C@@]4(O)[C@@H](C2)N(S(=O)(=O)c2ccccc2Cl)CC[C@]314`, the solubility [1] is reported as “Insoluble”, the “Ratio IC50” value [2] is reported as less than 88.4 and the solubility [3] is reported as “Insoluble”. For the same compound, the Ki [4] was 1.93 nM.
With `COc1ccc2c3c1O[C@H]1[C@H](N(C)C(=O)/C=C/c4ccccn4)CC[C@@]4(O)[C@@H](C2)N(S(=O)(=O)c2ccccc2N(C)C)CC[C@]314` the Ki [4] was 1.36 nM.
In the case of `COc1ccc2c3c1O[C@H]1[C@H](N(C)C(=O)/C=C/c4ccoc4)CC[C@@]4(O)[C@@H](C2)N(S(=O)(=O)c2ccccc2C)CC[C@]314`, the solubility [1] is reported as “Insoluble”, the “Ratio IC50” value [2] is reported as less than 88.4 and the solubility [3] is reported as “Insoluble”. It also gave a Ki [4] of 1.7 nM.
With `COc1ccc2c3c1O[C@H]1[C@H](N(C)C(=O)/C=C/c4ccoc4)CC[C@@]4(O)[C@@H](C2)N(S(=O)(=O)c2ccccc2Br)CC[C@]314` the solubility [1] was “Insoluble”, the “Ratio IC50” value [2] was less than 88.4 and the solubility [3] was “Insoluble”. It also gave a Ki [4] of 2.1 nM.
For `CN(C(=O)/C=C/c1ccccc1)[C@@H]1CC[C@@]2(O)[C@H]3Cc4ccc(O)c5c4[C@@]2(CCN3CC2CC2)[C@H]1O5.Cl`, the solubility [1] was “Insoluble”, the “Ratio IC50” value [2] was less than 88.4 and the solubility [3] was “Insoluble”. For the same compound, the Ki [4] was 389 nM.
With `COc1cccc(S(=O)(=O)N2CC[C@]34c5c6ccc(OC)c5O[C@H]3[C@H](N(C)C(=O)/C=C/c3ccoc3)CC[C@@]4(O)[C@H]2C6)c1` the solubility [1] was “Insoluble”, the “Ratio IC50” value [2] was less than 88.4 and the solubility [3] was “Insoluble”. It also gave a Ki [4] of 2.44 nM.
In the case of `COc1ccc2c3c1O[C@H]1[C@H](N(C)C(=O)/C=C/c4ccoc4)CC[C@@]4(O)[C@@H](C2)N(S(=O)(=O)c2cccc([N+](=O)[O-])c2)CC[C@]314`, the solubility [1] is reported as “Insoluble”, the “Ratio IC50” value [2] is reported as less than 88.4 and the solubility [3] is reported as “Insoluble”. For the same compound, the Ki [4] was 5.05 nM.
For `COc1ccc(S(=O)(=O)N2CC[C@]34c5c6ccc(OC)c5O[C@H]3[C@H](N(C)C(=O)/C=C/c3ccoc3)CC[C@@]4(O)[C@H]2C6)cc1`, the solubility [1] was “Insoluble”, the “Ratio IC50” value [2] was less than 88.4 and the solubility [3] was “Insoluble”. The Ki [4] was 8.99 nM.
With `COc1ccc2c3c1O[C@H]1[C@H](N(C)C(=O)/C=C/c4ccoc4)CC[C@@]4(O)[C@@H](C2)N(S(=O)(=O)c2ccc(F)cc2)CC[C@]314` the solubility [1] was “Insoluble”, the “Ratio IC50” value [2] was less than 88.4 and the solubility [3] was “Insoluble”. It also gave a Ki [4] of 4.05 nM.
With `COc1ccc2c3c1O[C@H]1[C@H](N(C)C(=O)/C=C/c4ccoc4)CC[C@@]4(O)[C@@H](C2)N(S(=O)(=O)c2ccc(Br)cc2)CC[C@]314` the solubility [1] was “Insoluble”, the “Ratio IC50” value [2] was less than 88.4 and the solubility [3] was “Insoluble”. The Ki [4] was 6.21 nM.
In the case of `COc1ccc2c3c1O[C@H]1[C@H](N(C)C(=O)/C=C/c4ccoc4)CC[C@@]4(O)[C@@H](C2)N(S(=O)(=O)c2ccc(C(F)(F)F)cc2)CC[C@]314`, the solubility [1] is reported as “Insoluble”, the “Ratio IC50” value [2] is reported as less than 88.4 and the solubility [3] is reported as “Insoluble”. It also gave a Ki [4] of 12.6 nM.
With `CN(C(=O)/C=C/c1ccco1)[C@@H]1CC[C@@]2(O)[C@H]3Cc4ccc(O)c5c4[C@@]2(CCN3CC2CC2)[C@H]1O5` the solubility [1] was “Insoluble”, the “Ratio IC50” value [2] was less than 88.4 and the solubility [3] was “Insoluble”. For the same compound, the Ki [4] was 751 nM.
With `COc1ccc2c3c1O[C@H]1[C@H](N(C)C(=O)/C=C/c4ccoc4)CC[C@@]4(O)[C@@H](C2)N(S(=O)(=O)c2cccc(N(C)C)c2)CC[C@]314.Cl` the solubility [1] was “Insoluble”, the “Ratio IC50” value [2] was less than 88.4 and the solubility [3] was “Insoluble”. For the same compound, the Ki [4] was 7.25 nM.
In the case of `CN(C)c1ccc(S(=O)(=O)N2CC[C@]34c5c6ccc(O)c5O[C@H]3[C@H](N(C)C(=O)/C=C/c3ccoc3)CC[C@@]4(O)[C@H]2C6)cc1`, the Ki [4] is reported as 320 nM.
For `COc1ccc2c3c1O[C@H]1[C@H](N(C)C(=O)/C=C/c4ccoc4)CC[C@@]4(O)[C@@H](C2)N(S(=O)(=O)c2ccc(C#N)cc2)CC[C@]314`, the solubility [1] was “Insoluble”, the “Ratio IC50” value [2] was less than 88.4 and the solubility [3] was “Insoluble”. The Ki [4] was 13.9 nM.
In the case of `COc1ccc2c3c1O[C@H]1[C@H](N(C)C(=O)/C=C/c4ccoc4)CC[C@@]4(O)[C@@H](C2)N(S(=O)(=O)c2c(C)cc(C)cc2C)CC[C@]314`, the solubility [1] is reported as “Insoluble”, the “Ratio IC50” value [2] is reported as less than 88.4 and the solubility [3] is reported as “Insoluble”. The Ki [4] was 4.16 nM.
